Test systems include U-251; HCT-15; OVCAR-4; EKVX; NCI-H23; OVCAR-3; M14; A498; SF-539; HOP-62; UACC-257; SR; IGROV-1; SNB-75; SNB-19; UACC-62; KM12; CAKI-1; NCI-H522.
Common to all, as to test: NCI tumour cell line growth inhibition, 48 h

The structures appear in SMILES notation.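 Grown in 96-well plates, cells were treated for 48 hours with each compound at five concentrations. Insufficient inhibition: endpoint recorded as highest concentration tested. Here, GI50 denotes the concentration required for 50% inhibition of growth.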 Calls of active or inactive are those of the source. Rule as the data show it: active = GI50 up to about 1.1 µM and inactive = higher.

Consider `Nc1nn(CC(O)CO)c(=O)s1` (stereo unspecified), for which the GI50 with U-251 is > 100 µM (inactive); in the assay with HCT-15 it was above 100 µM; with OVCAR-4, > 100 µM (inactive); in the assay on EKVX, > 100 µM (inactive); with NCI-H23, > 100 µM (inactive); with OVCAR-3, > 100 µM (inactive). Besides, the GI50 with M14, in the assay with A498, with SF-539, in the assay on HOP-62, in the assay on UACC-257 and with SR was > 100 µM (inactive) in each case. The GI50 is > 100 µM (inactive) with IGROV-1, 64.6 µM (inactive) in the assay on SNB-75, > 100 µM (inactive) in the assay with SNB-19 and > 100 µM (inactive) in the assay on UACC-62.

On to `COc1ccc(Sc2ccccc2N)cc1`, for which the GI50 in the assay on U-251 was 19 µM (inactive); in the assay on HCT-15, 37 µM; in the assay with OVCAR-4, 34.8 µM (inactive); in the assay with EKVX, 53.7 µM (inactive); in the assay on NCI-H23, 43.6 µM (inactive); in the assay on OVCAR-3 it was 29.1 µM (inactive). For the same compound, the GI50 with M14 was 35.8 µM (inactive); in the assay with KM12, 41.3 µM (inactive); in the assay on A498, > 100 µM (inactive); in the assay on SF-539, 29.6 µM (inactive); in the assay with HOP-62, 65.9 µM (inactive); in the assay on UACC-257, 38.5 µM (inactive). The GI50 with SR is 22.8 µM (inactive); in the assay with IGROV-1, 65.2 µM (inactive); in the assay with SNB-75, 19.6 µM (inactive); with SNB-19, > 100 µM (inactive); with UACC-62 it was 71.4 µM (inactive).

`NC(=O)C1(c2ccccc2)Nc2ccccc2S1` (stereo unspecified): the GI50 with U-251 was > 100 µM (inactive); in the assay with HCT-15, above 100 µM; in the assay with OVCAR-4 it was > 10 µM (inactive); in the assay with EKVX, > 100 µM (inactive); in the assay on NCI-H23, > 100 µM (inactive); in the assay on OVCAR-3, > 100 µM (inactive). The GI50 with M14, in the assay with KM12, in the assay on CAKI-1, in the assay with SF-539, in the assay with HOP-62 and in the assay on NCI-H522 was > 100 µM (inactive) each time. Besides, the GI50 in the assay on SR, with SNB-19 and with UACC-62 was > 100 µM (inactive) throughout.

With `CCCCOP1(=O)C=CC(Cl)=C(C)C1` (stereo unspecified), the GI50 in the assay with U-251 is > 10 µM (inactive); in the assay on HCT-15, 13.1 µM; in the assay on OVCAR-4 it was 25.2 µM (inactive); with EKVX, 70.3 µM (inactive); in the assay on NCI-H23, > 10 µM (inactive); with OVCAR-3 it was 24.7 µM (inactive). Moreover, the GI50 in the assay on M14 was 33.3 µM (inactive); in the assay with KM12, 21.5 µM (inactive); in the assay on CAKI-1, 68.7 µM (inactive); with SF-539, 18.5 µM (inactive); in the assay with HOP-62 it was 71.3 µM (inactive); in the assay with UACC-257 it was > 10 µM (inactive). In addition, the GI50 with NCI-H522 is > 10 µM (inactive); in the assay on SR it was 15.3 µM (inactive); with SNB-75 it was 23.3 µM (inactive); in the assay on SNB-19 it was 51.9 µM (inactive); in the assay with UACC-62 it was 22.3 µM (inactive).

Consider `COC1C=CC(O)C(CO)O1` (stereo unspecified), for which the GI50 in the assay on U-251 is > 100 µM (inactive); with HCT-15, above 100 µM; in the assay on OVCAR-4, > 100 µM (inactive); with EKVX it was > 100 µM (inactive); in the assay with NCI-H23 it was > 100 µM (inactive); in the assay with OVCAR-3, > 100 µM (inactive). Also, the GI50 in the assay with M14, with KM12, in the assay with SF-539, in the assay with HOP-62, in the assay with UACC-257 and in the assay with NCI-H522 was > 100 µM (inactive) each time. The GI50 in the assay with SR, in the assay with IGROV-1, in the assay on SNB-75 and in the assay with UACC-62 was > 100 µM (inactive) throughout.

The values above are taken from ChEMBL document CHEMBL1201862, “PubChem BioAssay data set” (2004).
